What all share (experiment): relative viability (nuclei count vs DMSO), 5 days (fraction); higher = more cells survive
Compound in experiment [1]: Cc1ccc(-n2nc(C(C)(C)C)cc2NC(=O)Nc2ccc(OCCN3CCOCC3)c3ccccc23)cc1 [Doramapimod] + Cc1nc(Nc2ncc(C(=O)Nc3c(C)cccc3Cl)s2)cc(N2CCN(CCO)CC2)n1 [Dasatinib] (partner 0.075 µM)
In a few lines: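 One day after seeding in 1536-well plates, lung cancer cell lines were dosed by pin tool. Dosing was either single-drug or a fixed anchor-drug dose plus five library-drug doses (not always all listed) in √10 steps. After 5 days, nuclei were stained in one fix-and-stain step and counted on 4× images, and relative viability is the nuclei count of treated wells over that of vehicle wells, given as the median of duplicate plates.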

Compound in experiment [2]: C1=CC=C2C(=C1)C=CC(=C2SSC3=C(C=CC4=CC=CC=C43)O)O [IPA-3]
The gist of the method: (§1)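 A plate was accepted only when its control CV was below 25% and the cells had doubled at least once. Viability is defined from nuclear counts as treated wells divided by vehicle wells, with the median taken across plates. That median covers lung cancer cell lines grown in 1536-well plates, dosed by pinning at five √10-spaced library-drug concentrations, and counted in MetaXpress from 4× Hoechst images after 5 days.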

Compound in experiment [3]: Cn1c(Nc2ccc(C(F)(F)F)cc2)nc2cc(Oc3ccnc(-c4ncc(C(F)(F)F)[nH]4)c3)ccc21 [RAF265]
In a few lines:
as §1

Compound in experiment [4]: Cc1ccc(-n2nc(C(C)(C)C)cc2NC(=O)Nc2ccc(OCCN3CCOCC3)c3ccccc23)cc1 [Doramapimod]
The gist of the method:
as §1

For the cell line NCI-H1975, the relative viability worked out at 0.284 in experiment [1] (first compound 0.02 µM); 0.365 in experiment [1] (first compound 0.06325 µM); 0.353 in experiment [1] (first compound 0.2 µM); 0.374 in experiment [1] (first compound 0.6325 µM); 0.357 in experiment [1] (first compound 2 µM); 1.06 in experiment [2] (0.2 µM). The relative viability in experiment [2] (0.6325 µM) stood at 0.924; in experiment [2] (2 µM), 0.957; in experiment [2] (6.325 µM), 1.1; in experiment [2] (20 µM), 0.993; in experiment [3] (0.01 µM) it was 0.932; in experiment [3] (0.03162 µM) it was 0.956. The relative viability came out at 0.602 in experiment [3] (0.1 µM); 0.442 in experiment [3] (0.3162 µM); 0.406 in experiment [3] (1 µM); 1.03 in experiment [4] (0.02 µM); 1.04 in experiment [4] (0.06325 µM); 1.08 in experiment [4] (0.2 µM). Also, the relative viability in experiment [4] (0.6325 µM) was determined as 1.05; in experiment [4] (2 µM), 1.04.
As to NCI-H1993, the relative viability stood at 0.885 in experiment [1] (first compound 0.02 µM); 0.638 in experiment [1] (first compound 0.06325 µM); 0.505 in experiment [1] (first compound 0.2 µM); 0.705 in experiment [1] (first compound 0.6325 µM); 0.559 in experiment [1] (first compound 2 µM); 0.981 in experiment [2] (0.2 µM). Also, the relative viability in experiment [2] (0.6325 µM) came to 0.99; in experiment [2] (2 µM) it was 0.873; in experiment [2] (6.325 µM), 0.97; in experiment [2] (20 µM), 1.01; in experiment [3] (0.01 µM) it was 1.04; in experiment [3] (0.03162 µM), 0.94. Also, the relative viability in experiment [3] (0.1 µM) was 1; in experiment [3] (0.3162 µM) it was 0.799; in experiment [3] (1 µM), 0.794; in experiment [4] (0.02 µM), 1.06; in experiment [4] (0.06325 µM), 0.941; in experiment [4] (0.2 µM), 0.852. Moreover, the relative viability stood at 1.14 in experiment [4] (0.6325 µM) and 0.864 in experiment [4] (2 µM).
Take NCI-H2009: the relative viability worked out at 0.345 in experiment [1] (first compound 0.02 µM); 0.382 in experiment [1] (first compound 0.06325 µM); 0.422 in experiment [1] (first compound 0.2 µM); 0.529 in experiment [1] (first compound 0.6325 µM); 0.297 in experiment [1] (first compound 2 µM); 1.17 in experiment [2] (0.2 µM). The relative viability in experiment [2] (0.6325 µM) is 0.969; in experiment [2] (2 µM) it was 1.01; in experiment [2] (6.325 µM) it was 0.984; in experiment [2] (20 µM) it was 0.874; in experiment [3] (0.01 µM), 0.997; in experiment [3] (0.03162 µM), 0.922. Further, the relative viability is 0.907 in experiment [3] (0.1 µM); 0.866 in experiment [3] (0.3162 µM); 0.649 in experiment [3] (1 µM); 1.03 in experiment [4] (0.02 µM); 1.14 in experiment [4] (0.06325 µM); 1.11 in experiment [4] (0.2 µM). Moreover, the figures for the relative viability in experiment [4] (0.6325 µM) and in experiment [4] (2 µM) were 1.17 and 1.02, respectively.
Turning to NCI-H2023, the relative viability in experiment [1] (first compound 0.02 µM) was found to be 0.601; in experiment [1] (first compound 0.06325 µM), 0.521; in experiment [1] (first compound 0.2 µM), 0.533; in experiment [1] (first compound 0.6325 µM), 0.645; in experiment [1] (first compound 2 µM), 0.512; in experiment [2] (0.2 µM), 1.37. Moreover, the relative viability worked out at 0.899 in experiment [2] (0.6325 µM); 1.02 in experiment [2] (2 µM); 1.1 in experiment [2] (6.325 µM); 1.06 in experiment [2] (20 µM); 0.988 in experiment [3] (0.01 µM); 0.988 in experiment [3] (0.03162 µM). Besides, the relative viability is 1.13 in experiment [3] (0.1 µM); 0.762 in experiment [3] (0.3162 µM); 0.808 in experiment [3] (1 µM); 0.928 in experiment [4] (0.02 µM); 0.975 in experiment [4] (0.06325 µM); 0.998 in experiment [4] (0.2 µM). Besides, the relative viability in experiment [4] (0.6325 µM) is 1.19; in experiment [4] (2 µM), 0.906.
Take NCI-H2085: the relative viability is 0.253 in experiment [1] (first compound 0.02 µM); 0.252 in experiment [1] (first compound 0.06325 µM); 0.221 in experiment [1] (first compound 0.2 µM); 0.28 in experiment [1] (first compound 0.6325 µM); 0.201 in experiment [1] (first compound 2 µM); 1.07 in experiment [2] (0.2 µM). The relative viability stood at 0.957 in experiment [2] (0.6325 µM); 1.01 in experiment [2] (2 µM); 0.933 in experiment [2] (6.325 µM); 1.18 in experiment [2] (20 µM); 1.04 in experiment [3] (0.01 µM); 0.904 in experiment [3] (0.03162 µM). Further, the relative viability in experiment [3] (0.1 µM) worked out at 1.05; in experiment [3] (0.3162 µM) it was 0.915; in experiment [3] (1 µM), 0.97; in experiment [4] (0.02 µM), 1.04; in experiment [4] (0.06325 µM) it was 0.975; in experiment [4] (0.2 µM), 1.01. For the same cell line, the relative viability in experiment [4] (0.6325 µM) was 1.01; in experiment [4] (2 µM) it was 0.966.

Source of the values: the supplement of paper PMC10307832.
